Data reported in patent US20230143612A1 (Arbutus Biopharma Corporation, priority 2020, published 2023).

Target: PD-L1 His protein / PD-1 Fc protein (Homo sapiens, UniProt Q9NZQ7)
Test: HTRF Assay (PD-1/PD-L1 interaction)
Assay type: binding
Settings: PD-L1 His 6 nM, PD-1 Fc 6 nM
In short: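 Compounds tested from 20 μM down to 0.001 μM (3-fold) against 6 nM PD-L1 His and 6 nM PD-1 Fc, 15 min room temperature incubation. Detection after 1 h at room temperature with Tb cryptate anti-6HIS and XL665 anti-human IgG reagents (mixture at 0.35 nM and 6.7 nM), HTRF signal.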

PD-L1 His protein / PD-1 Fc protein, sequence (Q9NZQ7 19-238 limits assumed): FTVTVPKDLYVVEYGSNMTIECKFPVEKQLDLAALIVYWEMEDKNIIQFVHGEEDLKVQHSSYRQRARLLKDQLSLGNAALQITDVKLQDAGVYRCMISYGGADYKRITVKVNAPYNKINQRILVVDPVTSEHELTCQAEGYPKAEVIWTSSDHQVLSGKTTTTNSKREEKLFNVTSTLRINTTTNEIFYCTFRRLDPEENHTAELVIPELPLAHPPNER

| Structure (SMILES) | IC50 [nM] |
| --- | --- |
| COc1nc(-c2cccc(-c3cccc(-c4cc5c(=O)n(C)c(CNC6CC7(COC7)C6)nn5c4)c3Cl)c2Cl)ccc1CNC[C@@H]1CCC(=O)N1 [Example 446, 6-[2-Chloro-3-[2-chloro-3-[6-methoxy-5-[[[(2S)-5-oxopyrrolidin-2-yl]methylamino]methyl]-2-pyridyl]phenyl]phenyl]-3-methyl-2-[(2-oxaspiro[3.3]heptan-6-ylamino)methyl] pyrrolo[2,1-f][1,2,4]triazin-4-one] | 160 |
| COc1nc(-c2cccc(-c3cccc(-c4cc5c(=O)n(C)c(CN6CC7(COC7)C6)nn5c4)c3Cl)c2Cl)ccc1CNC[C@@H]1CCC(=O)N1 [Example 447, 6-[2-Chloro-3-[2-chloro-3-[6-methoxy-5-[[[(2S)-5-oxopyrrolidin-2-yl]methylamino]methyl]-2-pyridyl]phenyl]phenyl]-3-methyl-2-(2-oxa-6-azaspiro[3.3]heptan-6-ylmethyl)pyrrolo[2,1-f][1,2,4]triazin-4-one] | 5 |
| COc1nc(-c2cccc(-c3cccc(-c4cc5c(=O)n(C)c(CN6CC7(CCC(=O)N7)C6)nn5c4)c3Cl)c2Cl)ccc1CNC[C@@H]1CCC(=O)N1 [Example 448, 6-[2-Chloro-3-[2-chloro-3-[6-methoxy-5-[[[(2S)-5-oxopyrrolidin-2-yl]methylamino]methyl]-2-pyridyl]phenyl]phenyl]-3-methyl-2-[(6-oxo-2,5-diazaspiro[3.4]octan-2-yl)methyl]pyrrolo [2,1-f][1,2,4]triazin-4-one] | 6.8 |
| COc1nc(-c2cccc(-c3cccc(-c4cc5c(=O)n(C)c(CNC6CC7(CCC(=O)N7)C6)nn5c4)c3Cl)c2Cl)ccc1CNC[C@@H]1CCC(=O)N1 (stereo partly drawn) [Example 449, 6-[2-Chloro-3-[2-chloro-3-[6-methoxy-5-[[[(2S)-5-oxopyrrolidin-2-yl]methylamino]methyl]-2-pyridyl]phenyl]phenyl]-3-methyl-2-[[(6-oxo-5-azaspiro[3.4]octan-2-yl)amino]methyl] pyrrolo[2,1-f][1,2,4]triazin-4-one] | 450 |
| COc1nc(-c2cccc(-c3cccc(-c4cc5c(=O)n(C)c(CNCCC6CCC(=O)N6)nn5c4)c3Cl)c2Cl)ccc1CNC[C@@H]1CCC(=O)N1 (stereo partly drawn) [Example 451, 6-[2-Chloro-3-[2-chloro-3-[6-methoxy-5-[[[(2S)-5-oxopyrrolidin-2-yl]methylamino]methyl]-2-pyridyl]phenyl]phenyl]-3-methyl-2-[[2-(5-oxopyrrolidin-2-yl)ethylamino]methyl]pyrrolo [2,1-f][1,2,4]triazin-4-one] | 200 |
| COc1nc(-c2cccc(-c3cccc(-c4ccc5c(CNC[C@@H]6CCC(=O)N6)cn(C)c5c4)c3Cl)c2Cl)ccc1CNC[C@@H]1CCC(=O)N1 [Example 452, (5S)-5-[[[6-[2-Chloro-3-[2-chloro-3-[1-methyl-3-[[[(2S)-5-oxopyrrolidin-2-yl]methylamino]methyl]indol-6-yl]phenyl]phenyl]-2-methoxy-3-pyridyl]methylamino]methyl]pyrrolidin-2-one] | 68 |
| Cn1cc(CNC[C@@H]2CCC(=O)N2)c2ccc(-c3cccc(-c4cccc(-c5ccn6c(=O)c(CNC[C@@H]7CCC(=O)N7)cnc6c5)c4Cl)c3Cl)cc21 [Example 453, 8-[2-Chloro-3-[2-chloro-3-[1-methyl-3-[[[(2S)-5-oxopyrrolidin-2-yl]methylamino]methyl]indol-6-yl]phenyl]phenyl]-3-[[[(2S)-5-oxopyrrolidin-2-yl]methylamino]methyl]pyrido[1,2-a]pyrimidin-4-one] | 1200 |
| COc1nc(-c2cccc(-c3cccc(-c4cc5c(cn4)CN(CCNC[C@@H]4CCC(=O)N4)C5=O)c3Cl)c2Cl)ccc1CNC[C@@H]1CCC(=O)N1 [Example 454, 6-(2,2′-dichloro-3′-(6-methoxy-5-(((((S)-5-oxopyrrolidin-2-yl)methyl)amino)methyl)pyridin-2-yl)-[1,1′-biphenyl]-3-yl)-2-(2-((((S)-5-oxopyrrolidin-2-yl)methyl)amino)ethyl)-2,3-dihydro-1H-pyrrolo[3,4-c]pyridin-1-one] | 0.1 |
| COc1cc(-c2cccc(-c3cccc(-c4ccc(CNC[C@@H]5CCC(=O)N5)c(OC)n4)c3Cl)c2Cl)cc2c1CN(CCO)CC2 [Example 455, (S)-5-((((6-(2,2′-Dichloro-3′-(2-(2-hydroxyethyl)-8-methoxy-1,2,3,4-tetrahydroisoquinolin-6-yl)-[1,1′-biphenyl]-3-yl)-2-methoxypyridin-3-yl)methyl)amino)methyl)pyrrolidin-2-one] | 12 |
| COc1nc(-c2cccc(-c3cccc(-c4ccc5c(n4)CCC[C@H]5NC[C@@H]4CCC(=O)N4)c3Cl)c2Cl)ccc1CNC[C@@H]1CCC(=O)N1 [Example 456, (S)-5-((((6-(2,2′-Dichloro-3′-((R)-5-((((S)-5-oxopyrrolidin-2-yl)methyl)amino)-5,6,7,8-tetrahydroquinolin-2-yl)-[1,1′-biphenyl]-3-yl)-2-methoxypyridin-3-yl)methyl)amino)methyl)pyrrolidin-2-one] | 0.2 |
| COc1nc(-c2cccc(-c3cccc(-c4cc5c(=O)n(C)c(CNC6CCN(C(C)=O)CC6)nn5c4)c3Cl)c2Cl)ccc1CNC[C@@H]1CCC(=O)N1 [Example 457, 2-[[(1-Acetyl-4-piperidyl)amino]methyl]-6-[2-chloro-3-[2-chloro-3-[6-methoxy-5-[[[(2S)-5-oxopyrrolidin-2-yl]methylamino]methyl]-2-pyridyl]phenyl]phenyl]-3-methyl-pyrrolo[2,1-f][1,2,4]triazin-4-one] | 190 |
| COc1nc(-c2cccc(-c3cccc(-c4cc5c(=O)n(C)c(CNCCN6CCCC6=O)nn5c4)c3Cl)c2Cl)ccc1CNC[C@@H]1CCC(=O)N1 [Example 458, 6-[2-Chloro-3-[2-chloro-3-[6-methoxy-5-[[[(2S)-5-oxopyrrolidin-2-yl]methylamino]methyl]-2-pyridyl]phenyl]phenyl]-3-methyl-2-[[2-(2-oxopyrrolidin-1-yl)ethylamino]methyl]pyrrolo[2,1-f][1,2,4]triazin-4-one] | 240 |
| COc1nc(-c2cccc(-c3cccc(-c4cnc5oc(CNC[C@@H]6CCC(=O)N6)cc5c4)c3Cl)c2Cl)ccc1CNC[C@@H]1CCC(=O)N1 [Example 459, (S)-5-((((6-(2,2′-Dichloro-3′-(2-(((((S)-5-oxopyrrolidin-2-yl)methyl)amino)methyl)furo[2,3-b]pyridin-5-yl)-[1,1′-biphenyl]-3-yl)-2-methoxypyridin-3-yl)methyl)amino)methyl)pyrrolidin-2-one] | 200 |
| COc1nc(-c2cccc(-c3cccc(-c4cc5c(=O)n(C)c(CN6CC7(C6)CN(C(C)=O)C7)nn5c4)c3Cl)c2Cl)ccc1CNC[C@@H]1CCC(=O)N1 [Example 460, 2-[(2-Acetyl-2,6-diazaspiro[3.3]heptan-6-yl)methyl]-6-[2-chloro-3-[2-chloro-3-[6-methoxy-5-[[[(2S)-5-oxopyrrolidin-2-yl]methylamino]methyl]-2-pyridyl]phenyl]phenyl]-3-methyl-pyrrolo[2,1-f][1,2,4]triazin-4-one] | 9.9 |
| COc1nc(-c2cccc(-c3cccc(-c4cc5c(=O)n(C)c(CN6CC(C(C)(C)O)C6)nn5c4)c3Cl)c2Cl)ccc1CNC[C@@H]1CCC(=O)N1 [Example 461, 6-[2-Chloro-3-[2-chloro-3-[6-methoxy-5-[[[(2S)-5-oxopyrrolidin-2-yl]methylamino]methyl]-2-pyridyl]phenyl]phenyl]-2-[[3-(1-hydroxy-1-methyl-ethyl)azetidin-1-yl]methyl]-3-methyl-pyrrolo[2,1-f][1,2,4]triazin-4-one] | 13 |
| COc1nc(-c2cccc(-c3cccc(-c4cc5c(=O)n(C)c(CNCC(C)(C)F)nn5c4)c3Cl)c2Cl)ccc1CNC[C@@H]1CCC(=O)N1 [Example 462, (S)-6-(2,2′-Dichloro-3′-(6-methoxy-5-((((5-oxopyrrolidin-2-yl)methyl)amino)methyl)pyridin-2-yl)-[1,1′-biphenyl]-3-yl)-2-(((2-fluoro-2-methylpropyl)amino)methyl)-3-methylpyrrolo[2,1-f][1,2,4]triazin-4(3H)-one] | 58 |
| COc1nc(-c2cccc(-c3cccc(-c4cc5c(=O)n(C)c(CNCC6(F)CC6)nn5c4)c3Cl)c2Cl)ccc1CNC[C@@H]1CCC(=O)N1 [Example 463, (S)-6-(2,2′-Dichloro-3′-(6-methoxy-5-((((5-oxopyrrolidin-2-yl)methyl)amino)methyl)pyridin-2-yl)-[1,1′-biphenyl]-3-yl)-2-((((1-fluorocyclopropyl)methyl)amino)methyl)-3-methylpyrrolo[2,1-f][1,2,4]triazin-4(3H)-one] | 36 |
| COc1nc(-c2cccc(-c3cccc(-c4cc5c(=O)n(C)c(CN[C@H]6C[C@](C)(O)C6)nn5c4)c3Cl)c2Cl)cc(Cl)c1CNC[C@@H]1CCC(=O)N1 [Example 464, 6-(2,2′-dichloro-3′-(4-chloro-6-methoxy-5-(((((S)-5-oxopyrrolidin-2-yl)methyl)amino)methyl)pyridin-2-yl)-[1,1′-biphenyl]-3-yl)-2-((((1r,3r)-3-hydroxy-3-methylcyclobutyl)amino)methyl)-3-methylpyrrolo[2,1-f][1,2,4]triazin-4(3H)-one] | 7.5 |
| COc1nc(-c2cccc(-c3cccc(-c4cc5c(=O)n(C)c(CNCC(C)(C)C(F)(F)F)nn5c4)c3Cl)c2Cl)ccc1CNC[C@@H]1CCC(=O)N1 [Example 466, (S)-6-(2,2′-Dichloro-3′-(6-methoxy-5-((((5-oxopyrrolidin-2-yl)methyl)amino)methyl)pyridin-2-yl)-[1,1′-biphenyl]-3-yl)-3-methyl-2-(((3,3,3-trifluoro-2,2-dimethylpropyl)amino)methyl) pyrrolo[2,1-f][1,2,4]triazin-4(3H)-one] | 63 |
| COc1nc(-c2cccc(-c3cccc(-c4cc5c(cn4)C(=O)N(CCNC[C@@H]4CCC(=O)N4)C5)c3Cl)c2Cl)ccc1CNC[C@@H]1CCC(=O)N1 [Example 467, 6-(2,2′-Dichloro-3′-(6-methoxy-5-(((((S)-5-oxopyrrolidin-2-yl)methyl)amino)methyl)pyridin-2-yl)-[1,1′-biphenyl]-3-yl)-2-(2-((((S)-5-oxopyrrolidin-2-yl)methyl)amino)ethyl)-1H-pyrrolo[3,4-c]pyridin-3(2H)-one] | 0.1 |
